This test has as its target PD-L1 (Homo sapiens, UniProt Q9NZQ7). Nature of the test: bio-affinity ultrafiltration, UPLC-HRMS. The following applies: […] h incubation with compound; denatured PD-L1 as control. Type of test: binding.

Sequence of PD-L1 (Q9NZQ7 19-290): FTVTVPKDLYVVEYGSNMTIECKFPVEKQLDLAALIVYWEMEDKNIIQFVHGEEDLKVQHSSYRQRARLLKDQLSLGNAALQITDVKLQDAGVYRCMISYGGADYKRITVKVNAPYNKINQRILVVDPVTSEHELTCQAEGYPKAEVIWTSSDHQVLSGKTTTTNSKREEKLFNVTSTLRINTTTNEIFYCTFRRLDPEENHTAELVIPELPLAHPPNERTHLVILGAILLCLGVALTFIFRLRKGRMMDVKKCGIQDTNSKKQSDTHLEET

With `NCCc1c[nH]c2ccccc12` [tryptamine], the “relative peak area enhancement” value came to 40.98%.

Source of the values: doi:10.1101/2022.07.12.499690v1 (biorxiv, 2022).
